Experimental data from patent US20220152159A1, “PHARMACEUTICAL COMPOSITION, METHODS FOR TREATING AND USES THEREOF” (Boehringer Ingelheim International GmbH, priority 2010, published 2022).

Tests used:
the diabetic = conditions: metformin on its own; cited from earlier work
[1] = tested on: streptozotocin-pretreated male Sprague-Dawley rats (experimental diabetes, type 1 diabetic condition); experiment: Example 2a: blood glucose over 4 h, SGLT2 inhibitor plus low-dose insulin glargine versus high-dose insulin glargine; format: in vivo, rat; conditions: for reduction of blood glucose versus control: four hours after administration; for statistical difference of blood glucose versus control: four hours
Method: All experimental protocols concerning the use of laboratory animals were reviewed by a federal Ethics Committee and approved by governmental authorities. Two weeks before the study starts, the rats were pretreated with a single dose of 60 mg/kg i.p. of streptozotocin to induced experimental diabetes, resembling a type 1 diabetic condition. During the study blood glucose was followed over 4 h in male, 3-h fasted Sprague-Dawley rats (Crl:CD) with an age of 8-9 weeks at the start of the study. A pre-dose blood sample was obtained by tail bleed for randomization and blood glucose was measured with a glucometer 30, 60, 90 min and 2, 3, 4 h after administration of the insulin alone or together with the SGLT2 inhibitor. At time point 0 min, the animals (n=4-6 per group) were injected either with insulin glargine or isotonic NaCl subcutaneously. Simultaneously all animals received oral administrations of either vehicle alone (0.5% aqueous hydroxyethylcellulose) or this vehicle containing the SGLT2 inhibitor. The data are presented as mean±S.E.M. Statistical comparison was conducted by repeated measures two-way ANOVA followed by Bonferroni post tests for group-wise comparisons. A p value <0.05 was considered to show a statistically significant difference. Insulin glargine was administered at a dose of 1.5 μl/animal (low-dose) or 6 μl/animal (high-dose). The term “Cpd. A+low-dose insulin glargine” denotes the combination of the SGLT2 inhibitor at a dose of 10 mg/kg and insulin glargine at a dose of 1.5 μl/animal. P values versus control are indicated by asterisks and p values of the low-dose insulin glargine versus the combination or the high-dose insulin glargine are indicated by crosses (one symbol, p<0.05; two symbols, p<0.01; three symbols, p<0.001). […] The combination had decreased blood glucose by 53%, which was in the range of the high-dose insulin glargine with a decrease of 47%.

[2] = tested on: streptozotocin-pretreated male Sprague-Dawley rats (experimental diabetes, type 1 diabetic condition); experiment: Example 1a: blood glucose over 4 h after SGLT2 inhibitor, insulin glargine or combination; format: in vivo, rat; conditions: four hours after administration, Cpd. A 10 mg/kg oral, insulin glargine 1.5 IU/animal s.c.; for reduction of blood glucose versus control: combination at the same doses, 3-h fasted STZ rats; for statistical difference of blood glucose versus control: combination same doses
Method: All experimental protocols concerning the use of laboratory animals were reviewed by a federal Ethics Committee and approved by governmental authorities. Two weeks before the study starts, the rats were pretreated with a single dose of 60 mg/kg i.p. of streptozotocin to induced experimental diabetes, resembling a type 1 diabetic condition. During the study blood glucose was followed over 4 h in male, 3-h fasted Sprague-Dawley rats (Crl:CD) with an age of 8-9 weeks at the start of the study. A pre-dose blood sample was obtained by tail bleed for randomization and blood glucose was measured with a glucometer 30, 60, 90 min and 2, 3, 4 hours after administration of the insulin and/or the SGLT2 inhibitor. At time point 0 min, the animals (n=4-6 per group) were injected either with insulin glargine or isotonic NaCl subcutaneously. Simultaneously all animals received oral administrations of either vehicle alone (0.5% aqueous hydroxyethylcellulose) or this vehicle containing the SGLT2 inhibitor. The data are presented as mean±S.E.M. Statistical comparison was conducted by repeated measures two-way ANOVA (analysis of variance) followed by Bonferroni post tests for group-wise comparisons. A p value <0.05 was considered to show a statistically significant difference. The term “Cpd. A” denotes the SGLT2 inhibitor compound (1.9) at a dose of 10 mg/kg. Insulin glargine was administered at a dose of 1.5 IU/animal. The term “Cpd. A+Insulin glargine” denotes the combination of the SGLT2 inhibitor compound (1.9) and insulin glargine at the same doses. P values versus control are indicated by asterisks and p values of the monotherapies versus the combination are indicated by crosses (one symbol, p<0.05; two symbols, p<0.01; three symbols, p<0.001). Four hours after administration, the SGLT2 inhibitor had reduced blood glucose by 19% versus control, and insulin glargine by 27%.

[3] = tested on: streptozotocin-pretreated male Sprague-Dawley rats (experimental diabetes, type 1 diabetic condition); experiment: Example 1b: blood glucose over 6 h after SGLT2 inhibitor, insulin glargine or combination; format: in vivo, rat; conditions: six hours after administration, Cpd. A 10 mg/kg oral, insulin glargine 1.5 μl/animal s.c.; for reduction of blood glucose versus control: combination at the same doses, 3-h fasted STZ rats; for statistical difference of blood glucose versus control: combination same doses
Method: All experimental protocols concerning the use of laboratory animals were reviewed by a federal Ethics Committee and approved by governmental authorities. Two weeks before the study starts, the rats were pretreated with a single dose of 60 mg/kg i.p. of streptozotocin to induced experimental diabetes, resembling a type 1 diabetic condition. During the study blood glucose was followed over 6 h in male, 3-h fasted Sprague-Dawley rats (Crl:CD) with an age of 8-9 weeks at the start of the study. A pre-dose blood sample was obtained by tail bleed for randomization and blood glucose was measured with a glucometer 30, 60, 90 min and 2, 3, 4, 5, 6 hours after administration of insulin and/or the SGLT2 inhibitor. At time point 0 min, the animals (n=4-6 per group) were injected either with insulin glargine or isotonic NaCl subcutaneously. Simultaneously all animals received oral administrations of either vehicle alone (0.5% aqueous hydroxyethylcellulose) or this vehicle containing the SGLT2 inhibitor. The data are presented as mean±S.E.M. Statistical comparison was conducted by repeated measures two-way ANOVA followed by Bonferroni post tests for group-wise comparisons. A p value <0.05 was considered to show a statistically significant difference. The term “Cpd. A” denotes the SGLT2 inhibitor compound (1.9) at a dose of 10 mg/kg. Insulin glargine was administered at a dose of 1.5 μl/animal. The term “Cpd. A+Insulin glargine” denotes the combination of the SGLT2 inhibitor compound (1.9) and insulin glargine at the same doses. P values versus control are indicated by asterisks and p values of the monotherapies versus the combination are indicated by crosses (one symbol, p<0.05; two symbols, p<0.01; three symbols, p<0.001). Six hours after administration, the SGLT2 inhibitor had reduced blood glucose by 13% versus control, and insulin glargine by 22%.

[4] = tested on: streptozotocin-pretreated male Sprague-Dawley rats (experimental diabetes, type 1 diabetic condition); experiment: Example 2b: blood glucose over 6 h, SGLT2 inhibitor plus low-dose insulin glargine versus high-dose insulin glargine; format: in vivo, rat; conditions: for reduction of blood glucose versus control: six hours after administration; for statistical difference of blood glucose versus control: six hours
Method: All experimental protocols concerning the use of laboratory animals were reviewed by a federal Ethics Committee and approved by governmental authorities. Two weeks before the study starts, the rats were pretreated with a single dose of 60 mg/kg i.p. of streptozotocin to induced experimental diabetes, resembling a type 1 diabetic condition. During the study blood glucose was followed over 6 h in male, 3-h fasted Sprague-Dawley rats (Crl:CD) with an age of 8-9 weeks at the start of the study. A pre-dose blood sample was obtained by tail bleed for randomization and blood glucose was measured with a glucometer 30, 60, 90 min and 2, 3, 4, 5, 6 h after administration of insulin alone or together with the SGLT2 inhibitor. At time point 0 min, the animals (n=4-6 per group) were injected either with insulin glargine or isotonic NaCl subcutaneously. Simultaneously all animals received oral administrations of either vehicle alone (0.5% aqueous hydroxyethylcellulose) or this vehicle containing the SGLT2 inhibitor. The data are presented as mean±S.E.M. Statistical comparison was conducted by repeated measures two-way ANOVA followed by Bonferroni post tests for group-wise comparisons. A p value <0.05 was considered to show a statistically significant difference. Insulin glargine was administered at a dose of 1.5 μl/animal (low-dose) or 6 IU/animal (high-dose). The term “Cpd. A+low-dose insulin glargine” denotes the combination of the SGLT2 inhibitor at a dose of 10 mg/kg and insulin glargine at a dose of 1.5 μl/animal. P values versus control are indicated by asterisks and p values of the low-dose insulin glargine versus the combination or the high-dose insulin glargine are indicated by crosses (one symbol, p<0.05; two symbols, p<0.01; three symbols, p<0.001). […] The combination had decreased blood glucose by 49%, which was in the range of the high-dose insulin glargine with a decrease of 44%.

[5] = low-dose insulin glargine 1.5 μl/animal s.c., alone or with Cpd. A 10 mg/kg oral
[6] = low-dose insulin glargine 1.5 μl/animal, alone or with Cpd. A 10 mg/kg

Compound | average improvement in the HbA1c value (the diabetic) | reduction of blood glucose versus control ([1]; high-dose insulin glargine 6 μl/animal s.c.) | reduction of blood glucose versus control [1, 5] | statistical difference of blood glucose versus control ([1]; high-dose insulin glargine 6 μl/animal) | statistical difference of blood glucose versus control [1, 6] | reduction of blood glucose versus control [2] | statistical difference of blood glucose versus control [2] | reduction of blood glucose versus control [3] | statistical difference of blood glucose versus control [3] | reduction of blood glucose versus control ([4]; high-dose insulin glargine 6 IU/animal s.c.) | reduction of blood glucose versus control [4, 5] | statistical difference of blood glucose versus control ([4]; high-dose insulin glargine 6 IU/animal) | statistical difference of blood glucose versus control [4, 6]
CN(C)C(=N)N=C(N)N [metformin] | 1.0-1.5% | – | – | – | – | – | – | – | – | – | – | – | –
Gly^A21, Arg^B31, Arg^B32 human insulin [insulin glargine] | – | 47% | 27% | significantly different from the control | without showing statistically significant difference | 27% | did not show statistically significant differences versus control | 22% | did not show statistically significant differences versus control | 44% | 22% | significantly different from the control | without showing statistically significant difference
OC[C@H]1O[C@@H](c2ccc(Cl)c(Cc3ccc(O[C@H]4CCOC4)cc3)c2)[C@H](O)[C@@H](O)[C@@H]1O [compound (1.9), 1-chloro-4-(β-D-glucopyranos-1-yl)-2-[4-((S)-tetrahydrofuran-3-yloxy)-benzyl]-benzene] | – | – | – | – | – | 19% | did not show statistically significant differences versus control | 13% | did not show statistically significant differences versus control | – | – | – | –
